Reference: US10047076B2, “Halogen-substituted compounds” (BAYER CROPSCIENCE AKTIENGESELLSCHAFT, priority 2014, dated 2018)

Key:
Lucilia cuprina = Lucilia cuprina test; type: in vivo; settings: 100 ppm, L1 larvae, after 2 days
Description: (§1) Solvent: dimethyl sulphoxide
About 20 L1 larvae of the Australian sheep blowfly (Lucilia cuprina) are transferred into a test vessel containing minced horsemeat and the active compound preparation of the desired concentration.
After 2 days, the kill in % is determined.

[1] = log P determination by HPLC on reversed-phase column (C18), EEC Directive 79/831 Annex V.A8, acidic (formic acid); type: physicochemical; settings: HPLC method a), acetonitrile/water with formic acid
Description: ^1 The stated mass is the peak of the isotope pattern of the [M+H]^+ ion of the highest intensity; if the [M-H]^- ion was detected, the stated mass is identified with ^2. ^2 The stated mass is the peak of the isotope pattern of the [M-H]^- ion of the highest intensity. ^a) Note regarding the determination of the log P values and mass detection: The determination of the given log P values was carried out in accordance with EEC Directive 79/831 Annex V.A8 by HPLC (High Performance Liquid Chromatography) on a reversed-phase column (C18). […] Mass detection is effected by means of an […] system. ^b) Note regarding the determination of the retention time and mass detection: The stated retention times were determined on a reversed-phase column (C18) Shimadzu LCMS 2020; 50*3.0 Shimadzu shim-pack XR-ODS 2.2 micron; mobile phase A: water (0.05% TFA); mobile phase B: acetonitrile; linear gradient from 5% acetonitrile to 95% acetonitrile in 6.00 min, then 95% acetonitrile for a further 1.1 min; oven temperature 40° C.; flow rate: 1.0 ml/min. ^c) Note regarding the determination of the retention time and mass detection: Instrument: Waters ACQUITY SQD UPLC system; column. Waters Acquity UPLC HSS T3 1.8μ 50×1 mm; mobile phase A: 1 l of water+0.25 ml of 99% strength formic acid, mobile phase B: 1 l of acetonitrile+0.25 ml of 99% strength formic acid; gradient: 0.0 min 90% A→1.2 min 5% A→2.0 min 5% A oven: 50° C.; flow rate: 0.40 ml/min; UV detection: 208-400 nm. ^d) Note regarding the determination of the retention time and mass detection: […] The determination of the given log P values was carried out in accordance with EEC Directive 79/831 Annex V.A8 by HPLC (High Performance Liquid Chromatography) on a reversed-phase column (C18). […] Mass detection is effected by means of an […] system.

Boophilus microplus = Boophilus microplus injection test; type: in vivo; settings: 20 μg/animal, engorged adult female ticks, after 7 days
Description: as §1
1 μl of the active compound solution is injected into the abdomen of 5 engorged adult female cattle ticks (Boophilus microplus). The animals are transferred into dishes and kept in a climate-controlled room.
(§2) Efficacy is assessed after 7 days by laying of fertile eggs. Eggs which are not visibly fertile are stored in a climate-controlled cabinet until the larvae hatch after about 42 days. An efficacy of 100% means that none of the ticks has laid any fertile eggs; 0% means that all the eggs are fertile.

Spodoptera frugiperda = Spodoptera frugiperda spray test; type: in vivo; settings: caterpillars on maize leaf discs, after 7 days
Source text: (§3) Solvent: 78.0 parts by weight of acetone

Ctenocephalides felis [2] = experiment: Ctenocephalides felis oral test; type: in vivo; settings: 100 ppm in citrated cattle blood, after 2 days
Source text: as §1
Dilution with citrated cattle blood gives the desired concentration.
About 20 unfed adult cat fleas (Ctenocephalides felis) are placed into a chamber which is closed at the top and bottom with gauze. A metal cylinder whose bottom end is closed with parafilm is placed onto the chamber. The cylinder contains the blood/active compound preparation, which can be imbibed by the fleas through the parafilm membrane.

Musca domestica = Musca domestica test; type: in vivo; settings: 100 ppm, adult houseflies, after 2 days
Source text: as §1
Vessels containing a sponge treated with sugar solution and the active compound preparation of the desired concentration are populated with 10 adult houseflies (Musca domestica).

Phaedon cochleariae = Phaedon cochleariae spray test; settings: larvae on Chinese cabbage leaf discs, after 7 days
Tetranychus urticae = Tetranychus urticae spray test, OP-resistant (bean leaf discs); type: in vivo; settings: after 6 days
Description: as §3
After 6 days, the efficacy in % is determined.

Rhipicephalus sanguineus = Rhipicephalus sanguineus in vitro contact test with adult brown dog ticks; type: in vivo; settings: after 48 h, adult ticks dead or moribund
Description: (§4) For the coating of the test tubes, 9 mg of active compound are first dissolved in 1 ml of acetone p.a. and then diluted to the desired concentration with acetone p.a. 250 μl of the solution are distributed homogeneously on the inner walls and the base of a 25 ml test tube by turning and rocking on an orbital shaker (rocking rotation at 30 rpm for 2 h). With 900 ppm active compound solution and internal surface 44.7 cm^2, given homogeneous distribution, an area-based dose of 5 μg/cm^2 is achieved.
After the solvent has evaporated off, the tubes are populated with 5-10 adult dog ticks (Rhipicephalus sanguineus), sealed with a perforated plastic lid and incubated in a horizontal position in the dark at room temperature and ambient humidity. After 48 h, efficacy is determined. To this end, the ticks are knocked to the floor of the tube and incubated on a hotplate at 45-50° C. for not more than 5 min. Ticks which remain motionless on the floor or move in such an uncoordinated manner that they are unable to deliberately avoid the heat by climbing upwards are considered to be dead or moribund.
An efficacy of 100% means that all the ticks were dead or moribund. 0% efficacy means that none of the ticks had been harmed.

Amblyomma hebraeum = experiment: Amblyomma hebaraeum test (AMBYHE), tick nymphs immersion; type: in vivo; settings: 100 ppm, after 42 days
Description: as §1
To produce a suitable active compound formulation, 10 mg of active compound are mixed with 0.5 ml of dimethyl sulphoxide, and the concentrate is diluted with water to the desired concentration.
Tick nymphs (Amblyomma hebraeum) are placed into perforated plastic beakers and immersed in the desired concentration for one minute. The ticks are transferred on filter paper into a Petri dish and stored in a climate-controlled cabinet.

[3] = tested on: cattle ticks (Boophilus microplus) Parkhurst strain, SP-resistant; experiment: Boophilus microplus dip test; type: in vivo; settings: 100 ppm, engorged adult female ticks, after 7 days
Description: Test animals: cattle ticks (Boophilus microplus) Parkhurst strain, SP-resistant
as §1
10 mg of active compound are dissolved in 0.5 ml of dimethyl sulphoxide. For the purpose of producing a suitable formulation, the active compound solution is diluted with water to the concentration desired in each case.
This active compound preparation is pipetted into tubes. 8-10 engorged adult female cattle ticks (Boophilus microplus) are transferred into a further tube with holes. The tube is immersed into the active compound preparation, and all the ticks are completely wetted. After the liquid has run out, the ticks are transferred on filter discs into plastic dishes and stored in a climate-controlled room.
as §2

Ctenocephalides felis [4] = experiment: Ctenocephalides felis in vitro contact test with adult cat fleas; type: in vivo; settings: application rate 5 μg/cm^2 (500 g/ha), after 48 h, adult cat fleas dead or moribund
Description: as §4
After the solvent has evaporated off, the tubes are populated with 5-10 adult cat fleas (Ctenocephalides felis), sealed with a perforated plastic lid and incubated in a horizontal position at room temperature and ambient humidity. After 48 h, efficacy is determined. To this end, the test tubes are stood upright and the fleas are knocked to the base of the tube. Fleas which remain motionless at the base or move in an uncoordinated manner are considered to be dead or moribund.
100% efficacy means that all the fleas were dead or moribund. 0% efficacy means that no fleas were harmed.

[5] = application rate 5 μg/cm^2 (500 g/ha)

Cn1nc(C(F)(F)C(F)(F)F)c(C(F)(F)F)c1-c1nc(-c2ccc(Cl)c(C(=O)NC3CC3)c2)no1 [Ibf-3]
efficacy (kill in %) (Lucilia cuprina): 100% | logP [1]: 4.26 | efficacy (laying of fertile eggs) (Boophilus microplus): 100% | efficacy (Spodoptera frugiperda; 500 g/ha): 100% | efficacy (kill in %) (Ctenocephalides felis [2]): 100% | efficacy (kill in %) (Musca domestica): 80% | efficacy (Phaedon cochleariae; 500 g/ha): 100%

Cn1nc(C(F)(F)C(F)(F)F)c(C(F)(F)F)c1-c1noc(-c2ccc(Cl)c(C(=O)NC3(C#N)CC3)c2)n1 [Ibe-4]
efficacy (kill in %) (Lucilia cuprina): 100% | logP [1]: 4.01 | efficacy (laying of fertile eggs) (Boophilus microplus): 100% | efficacy (Spodoptera frugiperda; 500 g/ha): 100% | efficacy (Tetranychus urticae; 500 g/ha): 90% | efficacy (kill in %) (Ctenocephalides felis [2]): 100% | efficacy (kill in %) (Musca domestica): 100% | efficacy (Phaedon cochleariae; 500 g/ha): 100%

CCn1nc(-c2ccc(Cl)c(C(=O)NC3CC3)c2)nc1-c1c(C(F)(F)F)c(C(F)(F)C(F)(F)F)nn1C [Ibg-5]
logP [1]: 4.09 | efficacy (Tetranychus urticae; 500 g/ha): 90% | efficacy (Phaedon cochleariae; 500 g/ha): 100%

CCn1nc(-c2c(C(F)(F)F)c(C(F)(F)C(F)(F)F)nn2C)nc1-c1ccc(Cl)c(C(=O)NC2CC2)c1 [Ibh-4]
efficacy (kill in %) (Lucilia cuprina): 100% | logP [1]: 3.99 | efficacy (laying of fertile eggs) (Boophilus microplus): 100% | efficacy (Tetranychus urticae; 500 g/ha): 100% | efficacy (kill in %) (Ctenocephalides felis [2]): 90% | efficacy (kill in %) (Musca domestica): 90% | efficacy (Phaedon cochleariae; 500 g/ha): 100%

Cn1nc(C(F)(F)C(F)(F)F)c(C(F)(F)F)c1-c1nc(-c2ccc(Cl)c(C(=O)NC3(C#N)CC3)c2)no1 [Ibf-2]
efficacy (kill in %) (Lucilia cuprina): 100% | logP [1]: 4.14 | efficacy (Rhipicephalus sanguineus; [5]): 80% | efficacy (laying of fertile eggs) (Boophilus microplus): 100% | efficacy (Spodoptera frugiperda; 500 g/ha): 100% | efficacy (kill in %) (Ctenocephalides felis [2]): 100% | efficacy (kill in %) (Musca domestica): 100% | efficacy (Phaedon cochleariae; 500 g/ha): 100%

Cn1nc(C(F)(F)C(F)(F)F)c(C(F)(F)F)c1-c1coc(-c2ccc(Cl)c(C(=O)NC3CC3)c2)c1 [Iac-3]
efficacy (kill in %) (Lucilia cuprina): 100% | logP [1]: 4.08 | efficacy (kill in %) (Amblyomma hebraeum): 100% | efficacy (laying of fertile eggs) (Boophilus microplus): 100% | efficacy (Spodoptera frugiperda; 100 g/ha): 100% | efficacy (laying of fertile eggs) [3]: 100% | efficacy (Tetranychus urticae; 100 g/ha): 100% | efficacy (kill in %) (Ctenocephalides felis [2]): 100% | efficacy (kill in %) (Musca domestica): 100% | efficacy (Phaedon cochleariae; 100 g/ha): 100%

Cn1nc(-c2c(C(F)(F)F)c(C(F)(F)C(F)(F)F)nn2C)nc1-c1ccc(Cl)c(C(=O)NCC(F)(F)F)c1 [Ibh-3]
logP [1]: 3.99 | efficacy (Spodoptera frugiperda; 500 g/ha): 100% | efficacy (Tetranychus urticae; 500 g/ha): 90% | efficacy (Phaedon cochleariae; 500 g/ha): 100%

Cn1nc(C(F)(F)C(F)(F)F)c(C(F)(F)F)c1-c1cc(-c2ccc(Cl)c(C(=O)NC3(C#N)CC3)c2)no1 [Iap-3]
efficacy (kill in %) (Lucilia cuprina): 100% | logP [1]: 3.96 | efficacy (Rhipicephalus sanguineus; [5]): 100% | efficacy (Ctenocephalides felis [4]): 100% | efficacy (laying of fertile eggs) (Boophilus microplus): 100% | efficacy (Spodoptera frugiperda; 100 g/ha): 100% | efficacy (Tetranychus urticae; 100 g/ha): 100% | efficacy (kill in %) (Ctenocephalides felis [2]): 100% | efficacy (kill in %) (Musca domestica): 100% | efficacy (Phaedon cochleariae; 100 g/ha): 100%

Cn1nc(C(F)(F)C(F)(F)F)c(C(F)(F)F)c1-c1cc(-c2ccc(Cl)c(C(=O)NCC(F)(F)F)c2)no1 [Iap-2]
efficacy (kill in %) (Lucilia cuprina): 100% | logP [1]: 4.42 | efficacy (Rhipicephalus sanguineus; application rate 1 μg/cm^2 (100 g/ha)): 80% | efficacy (laying of fertile eggs) (Boophilus microplus): 100% | efficacy (Spodoptera frugiperda; 100 g/ha): 100% | efficacy (kill in %) (Ctenocephalides felis [2]): 100% | efficacy (kill in %) (Musca domestica): 100% | efficacy (Phaedon cochleariae; 100 g/ha): 100%

Cn1nc(C(F)(F)C(F)(F)F)c(C(F)(F)F)c1-c1cc(-c2ccc(Cl)c(C(=O)NC3(C(F)(F)F)CC3)c2)no1 [Iap-5]
efficacy (kill in %) (Lucilia cuprina): 100% | logP [1]: 4.55 | efficacy (laying of fertile eggs) (Boophilus microplus): 100% | efficacy (kill in %) (Ctenocephalides felis [2]): 100% | efficacy (kill in %) (Musca domestica): 100% | efficacy (Phaedon cochleariae; 100 g/ha): 100%

Cn1nc(C(F)(F)C(F)(F)F)c(C(F)(F)F)c1-c1ccc(-c2ccc(Cl)c(C(=O)NC3(C#N)CC3)c2)o1 [Iaa-1]
efficacy (kill in %) (Lucilia cuprina): 100% | logP [1]: 4.08 | efficacy (laying of fertile eggs) (Boophilus microplus): 100% | efficacy (Spodoptera frugiperda; 100 g/ha): 100% | efficacy (kill in %) (Ctenocephalides felis [2]): 100% | efficacy (kill in %) (Musca domestica): 100% | efficacy (Phaedon cochleariae; 100 g/ha): 100%

Cn1nc(C(F)(F)C(F)(F)F)c(C(F)(F)F)c1-c1coc(-c2ccc(Cl)c(C(=O)NC3(C#N)CC3)c2)c1 [Iac-1, 2-chloro-N-(1-cyanocyclopropyl)-5-{4-[1-methyl-3-(pentafluoroethyl)-4-(trifluoromethyl)-1H-pyrazol-5-yl]-2-furyl}benzamide]
efficacy (kill in %) (Lucilia cuprina): 100% | chromatographic logP [1]: 4.02 | efficacy (kill in %) (Amblyomma hebraeum): 100% | efficacy (Ctenocephalides felis [4]): 100% | efficacy (laying of fertile eggs) (Boophilus microplus): 100% | efficacy (Spodoptera frugiperda; 100 g/ha): 100% | efficacy (laying of fertile eggs) [3]: 100% | efficacy (Tetranychus urticae; 100 g/ha): 100% | efficacy (kill in %) (Ctenocephalides felis [2]): 100% | efficacy (kill in %) (Musca domestica): 100% | efficacy (Phaedon cochleariae; 100 g/ha): 100%

Cn1nc(C(F)(F)C(F)(F)F)c(C(F)(F)F)c1-c1cc(-c2ccc(Cl)c(C(=O)NC3CSC3)c2)no1 [Iap-4]
efficacy (kill in %) (Lucilia cuprina): 100% | logP [1]: 4.37 | efficacy (Rhipicephalus sanguineus; [5]): 100% | efficacy (laying of fertile eggs) (Boophilus microplus): 100% | efficacy (Spodoptera frugiperda; 500 g/ha): 80% | efficacy (Tetranychus urticae; 500 g/ha): 90% | efficacy (kill in %) (Ctenocephalides felis [2]): 100% | efficacy (Phaedon cochleariae; 500 g/ha): 100%
